Measured values: patent publication US10149809B2, “Skin aging inhibitor and concentrate of resveratrol 3-O-α-glucoside” (priority 2014, dated 2018)

Legend:
[1] = test system: matrix metalloproteinase 9 (MMP9) gene; test: MMP9 gene expression in normal human dermal fibroblasts; assay type: cell-based; settings: 0.001 wt %, 24 hours, control = 100%
Description: Using normal human dermal fibroblasts, the effect of resveratrol 3-O-α-glucoside on matrix metalloproteinase 1 (MMP1) and 9 (MMP9) genes in the dermis was investigated.
Normal human dermal fibroblasts were seeded into 12-well culture plates at 9×10^4 cells per well. As the medium, 10 vol % FBS (Fetal Bovine Serum)-containing DMEM medium (basal medium) was used, and the cells were preincubated in 5% CO2 at 37° C. for 24 hours. The medium was removed and then replaced with a basal medium supplemented with 0.001 wt % of resveratrol 3-O-α-glucoside, and the cells were cultured in 5% CO2 at 37° C. After 24 hours, total RNA was extracted from the cells, and the levels of expression of the MMP1 and MMP9 genes were quantified by real time PCR. As a control group, cells were cultured without resveratrol 3-O-α-glucoside, and total RNA collected from these cells was used.
Taking as 100% the level of expression of each of the MMP1 and MMP9 genes for the control group, a relative ratio of the expression level of each of the MMP1 and MMP9 genes for the resveratrol 3-O-α-glucoside-supplemented group (MMP1 and MMP9 gene expression ratios, %) was determined. In the measurement of the expression level of each of the MMP1 and MMP9 genes, GAPDH (glyceraldehyde 3-phosphate dehydrogenase) was used for internal standard correction.

sirtuin 1 gene = test: Sirtuin 1 gene expression-promoting effect (1); assay type: cell-based; settings: normal human epidermal keratinocytes, 0.02 wt %, 72 hours; control = 100%
Description: Normal human epidermal keratinocytes were seeded into 12-well culture plates at 7.5×10^4 cells per well. As the medium, EpiLife KG-2 medium supplemented with insulin, hEGF, hydrocortisone, anti-microbial agents, and BPE was used (basal medium), and the cells were preincubated in 5% CO2 at 37° C. for 72 hours. The medium was removed and then replaced with a sample medium supplemented with resveratrol 3-O-α-glucoside to a concentration of 0.02 wt %, and the cells were cultured in 5% CO2 at 37° C. After 72 hours, total RNA was extracted from the cells, and the level of expression of the sirtuin 1 gene was quantified by real time PCR. As a control group, cells were cultured without resveratrol 3-O-α-glucoside, and total RNA collected from these cells was used.
Taking as 100% the level of expression of the sirtuin 1 gene for the control group, a relative ratio of the expression level of the sirtuin 1 gene for the resveratrol 3-O-α-glucoside-supplemented group (SIRT 1 gene expression ratio, %) was determined. In the measurement of the expression level of the sirtuin 1 gene, PPIA was used for internal standard correction.

IL-1β gene = test: Anti-inflammatory effect: IL-1β gene expression after Poly I:C-induced inflammation; assay type: cell-based; settings: normal human epidermal keratinocytes, Poly I:C 1 μg/mL 9 hours, then 0.001 wt % for 15 hours; control = 100%, comparative group (Poly I:C only) 1210
Description: Normal human epidermal keratinocytes were seeded into 12-well culture plates at 5×10^4 cells per well. As the medium, EpiLife KG-2 medium supplemented with insulin, the human […] growth factor (hEGF), hydrocortisone, anti-microbial agents, and bovine pituitary extract (BPE) was used (basal medium), and the cells were preincubated in 5% CO2 at 37° C. for 48 hours. Further, the cells were incubated for additional 48 hours in a medium obtained by removing hydrocortisone only from the basal medium (assay medium). Next, the medium was replaced with an inflammation-inducing medium obtained by supplementing the assay medium with Poly I:C (double strand of inosine ribonucleotide and cytidine ribonucleotide strands) to a concentration of 1 μg/mL, and the cells were cultured for 9 hours, thus preparing an inflammation model. […] After the culture, total RNA was extracted from the cells, and the level of expression of the proinflammatory cytokine IL-1β gene was quantified by real time PCR. […]
Taking as 100% the level of expression of the IL-1β gene for the control group, a relative ratio of the expression level of the IL-1β gene for each of the comparative group and the resveratrol 3-O-α-glucoside-supplemented group (IL-1β gene expression ratio, %) was calculated. […]

[2] = test system: hyaluronidase (from bovine testes); test: Hyaluronidase inhibitory effect; assay type: biochemical; settings: pH 4.0, 37° C., 40 minutes
Description: The following sample solution, enzyme solution, and hyaluronic acid solution were prepared.
Resveratrol 3-O-α-glucoside was dissolved in a 0.2 M acetate buffer solution (pH 4.0) to a concentration of 0.025 or 0.1 wt %, and the resulting solution was used as a sample solution.
In 1.5 mL of a 0.2 M acetate buffer solution (pH 4.0), 7400 units of hyaluronidase (from bovine testes; Sigma-Aldrich Co. LLC.) were dissolved, and the resulting solution was used as the enzyme solution.
In 12.5 mL of a 0.2 M acetate buffer solution (pH 4.0), 10 mg of sodium hyaluronate (from crista galli; Wako Pure Chemical Industries, Ltd.) was dissolved, and the resulting solution was used as the hyaluronic acid solution.
Using each of the solutions prepared as above, the hyaluronidase inhibitory effect was evaluated in accordance with the following procedures. One-hundred microliters of the sample solution, 50 μL of the enzyme solution, and 200 μL of the hyaluronic acid solution were mixed and reacted at 37° C. for 40 minutes. Then, 100 μL each of a 0.4 M aqueous solution of sodium hydroxide and a 1 M aqueous solution of potassium borate were added to the mixture, and the reaction was stopped. […] The absorbance at 585 nm was subsequently measured. From the measured value of absorbance, the hyaluronidase inhibition ratio was determined in accordance with the equation shown below. […]

[3] = Non-Patent Literature 3; cited from earlier work

| SMILES | MMP9 Gene Expression Ratio (%) [1] | SIRT 1 Gene Expression Ratio (%) (sirtuin 1 gene) | IL-1β Gene Expression Ratio (%) (IL-1β gene) | Hyaluronidase Inhibition Ratio (%) ([2]; 0.025 wt % in the sample solution) | Hyaluronidase Inhibition Ratio (%) ([2]; 0.1 wt % in the sample solution) | water solubility [3] | water solubility relative to that of resveratrol [3] |
| --- | --- | --- | --- | --- | --- | --- | --- |
| OC[C@H]1O[C@H](Oc2cc(O)cc(C=Cc3ccc(O)cc3)c2)[C@H](O)[C@@H](O)[C@@H]1O [Resveratrol 3-O-α-Glucoside, resveratrol 3-O-α-glucoside] | 45% | 171% | 885% | 7.6% | 20.6% |  |  |
| OC[C@H]1O[C@@H](Oc2cc(O)cc(/C=C/c3ccc(O)cc3)c2)[C@H](O)[C@@H](O)[C@@H]1O [Resveratrol 3-O-β-Glucoside, resveratrol 3-O-β-glucoside] |  |  |  |  |  | approximately 400 μg/mL | approximately 10 fold |
